Assay results reported in patent publication US20260308152A1, “METHODS OF MAKING 2-AMINO-1-(3-HYDROXY-2,6-DIMETHYLPHENYL)-5,6-DIMETHYL-1H-PYRROLO-[2,3-B]PYRIDINE-3-CARBOXAMIDE, A MYT1 INHIBITOR” (Repare Therapeutics Inc., priority 2022, published 2026).
Values after ≈ are worked out from the molar mass of the structure shown. Marks after values point to notes of the source that are not given here.

Tests used:
Type in all cases: physicochemical
[1] = Chiral acid salt screen: approximate solubility of starting material in solvents; conditions: ambient temperature, 3 days
Procedure: INT 1f salts (50-60 mg) were weighed into 4 ml vials. Solvent (~0.2-1.0 mL) was added to each vial, and the vials were stirred at ambient temperature for 3 days. Additional solvent was added to vials with thick slurries, and additional salts were added to vials with clear solutions.
In this example, the resolution of INT 1g and Compound 1 via chiral salts is summarized.

[2] = Solubility in anisole at various temperatures
Excerpt: The solubility of racemic INT 1f (recrystallized from anisole) in anisole at various temperatures was investigated (Table 28).
The solubility of (S)-INT 1f/(R)-CSA salt in anisole at various temperatures was also investigated

[3] = Solubility of INT 1b in organic solvents; conditions: most organic solvents (FIG. 1)
Excerpt: FIG. 1 is a graph illustrating the solubility of INT 1b in organic solvents, including heptane, toluene, xylenes, isopropyl acetate (IPAc), ethyl acetate (EtOAc), methyl ethyl ketone (MEK), methyl t-butyl ether (MTBE), dichloromethane (DCM), methanol (MeOH), ethanol (EtOH), isopropanol (iPrOH), acetonitrile (MeCN), water, 5 M H2SO4, and 1 M H2SO4.

[4] = Aromatic solvent screen: solubility of INT 1f/(R)-CSA salt
Excerpt: Following the encouraging result employing anisole as the solvent and switching to (R)-CSA to afford the desired diastereomer, the following common aromatic solvents were screened: 1,3-dimethoxybenzene;
2-, 3-, and 4-methyanisoles; o, m, and p-xylenes; and α,α,α-trifluorotoluene (Table 18). […] In addition to anisole, 4-methylanisole and 1,3-dimethoxybenzene also afforded enantioenriched crystalline solids with enantiomeric ratios (e.r.) of 90:10 and 87:13, respectively. However, the highest e.r. was obtained with anisole (92:8).

Approximate Solubility of Starting Material ([1]; 1,4-Dioxane) | Approximate Solubility of Starting Material ([1]; Acetone:water (9:1)) | Approximate Solubility of Starting Material ([1]; Anisole) | Approximate Solubility of Starting Material ([1]; DCM) | Approximate Solubility of Starting Material ([1]; EtOAc) | Approximate Solubility of Starting Material ([1]; EtOH:Heptane (1:1)) | Approximate Solubility of Starting Material ([1]; EtOH) | Approximate Solubility of Starting Material ([1]; MeCN) | Approximate Solubility of Starting Material ([1]; THF) | Approximate Solubility of Starting Material ([1]; Toluene) | Structure (SMILES) | other results
Highly soluble | Highly soluble | Soluble | Highly soluble | Very soluble | Highly soluble | Very soluble | Highly soluble | Highly soluble | Soluble | CC1(C)C2CCC1(CS(=O)(=O)O)C(=O)C2Br.COc1ccc(C)c(-n2c(N)c(C#N)c3cc(C)c(C)nc32)c1C.O | –
Highly soluble | Very soluble | Very soluble | Highly soluble | Soluble | Soluble | Very soluble | Soluble | Highly soluble | Very soluble | COc1ccc(C)c(-n2c(N)c(C#N)c3cc(C)c(C)nc32)c1C.O=P1(O)Oc2ccc3ccccc3c2-c2c(ccc3ccccc23)O1 | –
Very soluble | Soluble | Soluble | Very soluble | Soluble | Soluble | Soluble | Soluble | Very soluble | Soluble | COc1ccc(C)c(-n2c(N)c(C#N)c3cc(C)c(C)nc32)c1C.Cc1ccc(C(=O)O[C@H](C(=O)O)[C@H](OC(=O)c2ccc(C)cc2)C(=O)O)cc1 | –
– | – | – | – | – | – | – | – | – | – | COc1ccc(C)c(-n2c(N)c(C#N)c3cc(C)c(C)nc32)c1C (racemic) [INT 1f, 2-Amino-1-(3-methoxy-2,6-dimethylphenyl)-5,6-dimethyl-1H-pyrrolo[2,3-b]-pyridine-3-carbonitrile] | Solubility in anisole ([2]; racemic, crystal form recrystallized from anisole, 25° C.): 14.01 mg/mL (≈ 43.7 mM); Solubility in anisole ([2]; racemic, crystal form recrystallized from anisole, 30° C.): 17.72 mg/mL (≈ 55.3 mM); Solubility in anisole ([2]; racemic, crystal form recrystallized from anisole, 40° C.): 21.26 mg/mL (≈ 66.4 mM); Solubility in anisole ([2]; racemic, crystal form recrystallized from anisole, 50° C.): 25.99 mg/mL (≈ 81.1 mM); Solubility in anisole ([2]; racemic, crystal form recrystallized from anisole, 60° C.): 46.5 mg/mL (≈ 145 mM)
– | – | – | – | – | – | – | – | – | – | CC1(C)[C@H]2CC[C@]1(CS(=O)(=O)O)C(=O)C2.COc1ccc(C)c(-n2c(N)c(C#N)c3cc(C)c(C)nc32)c1C [(S)-INT 1f/(R)-CSA, (S)-2-Ammonium-1-(3-methoxy-2,6-dimethylphenyl)-5,6-dimethyl-1H-pyrrolo[2,3-b]-pyridine-3-carbonitrile/(R)-CSA] | Solubility in anisole ([2]; salt, 21° C.): 2.39 mg/mL; Solubility in anisole ([2]; salt, 30° C.): 3.78* mg/mL; Solubility in anisole ([2]; salt, 40° C.): 3.37 mg/mL; Solubility in anisole ([2]; salt, 50° C.): 4.20 mg/mL; Solubility in anisole ([2]; salt, 60° C.): 7.29 mg/mL
– | – | Partially soluble | Partially soluble | – | Partially soluble | – | – | – | – | Cc1cc2c(C(N)=O)c(N)n(-c3c(C)ccc(O)c3C)c2nc1C [Compound 1/Acid d] | –
– | Soluble | Soluble | Partially soluble | – | Soluble | Partially soluble | Partially soluble | Soluble | – | Cc1cc2c(C(N)=O)c(N)n(-c3c(C)ccc(O)c3C)c2nc1C [Compound 1/Acid f] | –
– | Soluble | – | Partially soluble | – | – | Soluble | – | – | – | Cc1cc2c(C(N)=O)c(N)n(-c3c(C)ccc(O)c3C)c2nc1C [Compound 1/Acid h] | –
– | – | – | – | – | – | – | – | – | – | Cc1cc(Br)c(=O)[nH]c1C [INT 1b] | solubility in most organic solvents [3]: poor solubility
Highly soluble | Soluble | Soluble | Highly soluble | Soluble | Soluble | Soluble | Soluble | Highly soluble | Soluble | COc1ccc(C)c(-n2c(N)c(C#N)c3cc(C)c(C)nc32)c1C.O=C(O[C@H](C(=O)O)[C@H](OC(=O)c1ccccc1)C(=O)O)c1ccccc1 [INT 1f/(+)-2,3-Dibenzoyl-D-tartaric Acid] | –
– | – | – | – | – | – | – | – | – | – | CC1(C)C2CC[C@]1(CS(=O)(=O)O)C(=O)C2.COc1ccc(C)c(-n2c(N)c(C#N)c3cc(C)c(C)nc32)c1C [INT 1f/(R)-CSA] | solubility ([4]; 1,3-dimethoxybenzene and anisole): high solubility; solubility ([4]; 2-, 3-, 4-methyanisole with heating): good solubility; solubility ([4]; other aromatic solvents (xylenes, α,α,α-trifluorotoluene)): poor solubility
Soluble | Highly soluble | Very soluble | Very soluble | Soluble | Soluble | Very soluble | Highly soluble | Very soluble | Highly soluble | CC1(C)C2CC[C@@]1(CS(=O)(=O)O)C(=O)C2.COc1ccc(C)c(-n2c(N)c(C#N)c3cc(C)c(C)nc32)c1C [INT 1f/(S)-CSA] | –
Soluble | Soluble | Very soluble | Highly soluble | Highly soluble | Soluble | Very soluble | Very soluble | Highly soluble | Very soluble | COc1ccc(C)c(-n2c(N)c(C#N)c3cc(C)c(C)nc32)c1C.O=P1(O)Oc2c(-c3c(C4CCCCC4)cc(C4CCCCC4)cc3C3CCCCC3)cc3ccccc3c2-c2c(c(-c3c(C4CCCCC4)cc(C4CCCCC4)cc3C3CCCCC3)cc3ccccc23)O1 [INT 1f/(S)-TCYP] | –
Highly soluble | Highly soluble | Very soluble | Highly soluble | Very soluble | Soluble | Soluble | Soluble | Highly soluble | Highly soluble | CC(C)c1cc(C(C)C)c(-c2cc3ccccc3c3c2OP(=O)(O)Oc2c(-c4c(C(C)C)cc(C(C)C)cc4C(C)C)cc4ccccc4c2-3)c(C(C)C)c1.COc1ccc(C)c(-n2c(N)c(C#N)c3cc(C)c(C)nc32)c1C [INT 1f/(S)-TRIP] | –
